The source of these data is paper PMC12525688, “Anti-Helicobacter pylori Activity and Gastroprotective Effects of Diacetylcurcumin and Four Metal Derivatives” (Molecules, 2025).

Structures are written as SMILES. Read-outs that look alike come from different tables or passages of the source.

Assay [1] addresses T1, Helicobacter pylori urease (Helicobacter pylori, UniProt P69996).
T1 construct: gene ureB; native urease from supernatant of sonicated H. pylori ATCC 43504; with urease subunit alpha (UreA)
The assay is described as follows: Berthelot colorimetric urease activity assay with lysate supernatant (partially purified urease). Format: biochemical.

The target of assay [2] is T2, E. coli DNA gyrase (Escherichia coli, UniProt P0AES4+P0AES6).
T2 construct: gene gyrA; DNA gyrase of the TopoGEN E. coli DNA Gyrase Drug Screening kit; with DNA gyrase subunit B (GyrB)
T2 sequence (P0AES4 2-875, one chain of several): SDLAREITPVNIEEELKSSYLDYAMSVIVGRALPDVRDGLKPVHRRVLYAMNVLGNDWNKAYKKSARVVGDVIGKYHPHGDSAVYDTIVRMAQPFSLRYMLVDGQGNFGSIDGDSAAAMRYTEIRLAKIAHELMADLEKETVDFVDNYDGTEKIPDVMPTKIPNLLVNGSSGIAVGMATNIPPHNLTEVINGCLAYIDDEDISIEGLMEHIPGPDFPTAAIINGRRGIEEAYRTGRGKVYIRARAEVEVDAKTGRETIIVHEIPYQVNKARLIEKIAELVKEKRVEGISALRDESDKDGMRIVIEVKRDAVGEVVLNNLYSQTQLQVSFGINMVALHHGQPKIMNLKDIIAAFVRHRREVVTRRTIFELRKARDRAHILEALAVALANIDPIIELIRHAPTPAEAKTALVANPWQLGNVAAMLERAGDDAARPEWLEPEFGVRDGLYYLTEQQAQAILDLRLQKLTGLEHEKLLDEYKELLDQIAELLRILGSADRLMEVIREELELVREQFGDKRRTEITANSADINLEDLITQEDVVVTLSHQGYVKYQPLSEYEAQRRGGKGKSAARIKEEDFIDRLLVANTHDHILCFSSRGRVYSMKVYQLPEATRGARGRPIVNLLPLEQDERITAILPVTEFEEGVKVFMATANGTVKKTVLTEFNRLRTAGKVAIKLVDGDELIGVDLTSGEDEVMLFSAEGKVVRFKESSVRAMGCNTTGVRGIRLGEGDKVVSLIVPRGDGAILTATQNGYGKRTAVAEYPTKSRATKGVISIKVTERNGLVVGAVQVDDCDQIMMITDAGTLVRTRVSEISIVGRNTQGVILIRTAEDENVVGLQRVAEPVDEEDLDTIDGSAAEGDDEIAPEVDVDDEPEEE
The assay is described as follows: DNA supercoiling assay (agarose gel), […] inhibition at […]. It is filed as biochemical.

The term IC50 denotes the midpoint of a concentration-inhibition curve. By inhibition is commonly meant the change of the read-out against control, counted positive when it falls.

T1 sequence (P14916 whole entry): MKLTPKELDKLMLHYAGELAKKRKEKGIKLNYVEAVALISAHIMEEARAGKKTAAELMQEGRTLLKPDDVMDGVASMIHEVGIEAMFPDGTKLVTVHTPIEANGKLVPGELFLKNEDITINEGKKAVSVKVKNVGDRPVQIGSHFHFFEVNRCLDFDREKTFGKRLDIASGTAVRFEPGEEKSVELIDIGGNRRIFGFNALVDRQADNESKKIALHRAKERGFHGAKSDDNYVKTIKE
T1 sequence (P69996 whole entry): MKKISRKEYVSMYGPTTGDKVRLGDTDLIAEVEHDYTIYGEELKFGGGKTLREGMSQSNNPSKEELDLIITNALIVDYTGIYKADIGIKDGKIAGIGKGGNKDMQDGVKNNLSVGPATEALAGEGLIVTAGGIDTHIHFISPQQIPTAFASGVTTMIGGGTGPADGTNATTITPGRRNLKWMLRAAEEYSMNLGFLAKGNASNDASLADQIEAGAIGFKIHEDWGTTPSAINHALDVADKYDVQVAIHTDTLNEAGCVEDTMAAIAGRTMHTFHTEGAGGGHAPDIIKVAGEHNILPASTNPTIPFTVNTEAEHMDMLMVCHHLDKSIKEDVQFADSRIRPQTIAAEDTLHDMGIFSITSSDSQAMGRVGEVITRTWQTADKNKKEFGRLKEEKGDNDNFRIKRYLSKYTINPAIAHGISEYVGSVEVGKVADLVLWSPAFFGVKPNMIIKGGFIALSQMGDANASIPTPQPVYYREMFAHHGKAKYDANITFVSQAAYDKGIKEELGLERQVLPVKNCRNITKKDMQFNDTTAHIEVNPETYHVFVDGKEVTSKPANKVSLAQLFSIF

`COc1cc(/C=C/C(=O)C=C(/C=C/c2ccc(OC(C)=O)c(OC)c2)[O][Cu][O]C(=CC(=O)/C=C/c2ccc(OC(C)=O)c(OC)c2)/C=C/c2ccc(OC(C)=O)c(OC)c2)ccc1OC(C)=O` [DAC2-Cu] displayed a half-inhibitory concentration (IC50) in assay [1] of 20.4 µM.

For `O=C(O)c1cn(C2CC2)c2cc(N3CCNCC3)c(F)cc2c1=O` [ciprofloxacin], in assay [2], testing at 3 µM gave an inhibition of 100%. The molecule `COc1cc(/C=C/C(=O)C=C(/C=C/c2ccc(OC(C)=O)c(OC)c2)[O][Zn][O]C(=CC(=O)/C=C/c2ccc(OC(C)=O)c(OC)c2)/C=C/c2ccc(OC(C)=O)c(OC)c2)ccc1OC(C)=O` [DAC2-Zn] displayed an IC50 in assay [1] of 12.4 µM. For `CC(=O)NO` [AHA, acetohydroxamic acid], the IC50 in assay [1] (read-out: IC50) amounted to 488 µM.
